Source: patent US12552811B2, “Immunosuppressant, and preparation method therefor and use thereof” (Abbisko Therapeutics Co., Ltd., priority 2020, dated 2026)

Key:
[1] = molecular target: interaction between PD-1 and PD-L1 (Homo sapiens (Human), UniProt Q9NZQ7); test: PD1-PDL1 HTRF binding activity test; settings: Cisbio PD-1/PD-L1 binding assay kit
Method: I. PD1-PDL1 HTRF Binding Activity Test
The effect of compounds of the examples of the present invention on the interaction between PD-1 and PD-L1 was determined by the PD-1/PD-L1 binding assay kit from Cisbio (#64ICP01PEG or 64ICP01PEH). The detailed experimental process was as follows: • 1) Pre-diluted compound solution, 4 μL of Tag1-PD-L1 and 4 μL of Tag2-PD1 were added to each well of a 384-well plate: • 2) After the mixture was incubated at room temperature for 15 min, 5 μL of anti-Tag1-Eu3+ antibody and 5 μL of anti-Tag2-XL665 antibody were then added; • 3) After incubated for 2 hrs at room temperature or overnight at 4° C., plates were read on Envision of Pelkin Elmer; and readings at 665 nm and 620 nm were recorded, and the ratio of the two readings was taken as a reading for each well; • 4) The reading of each well after compound treatment was compared with the reading of DMSO treated wells to obtain the percent inhibition of the compound; • 5) IC50 values of compounds and positive compounds of the examples of the present invention were determined by non-linear regression analysis of percent inhibition at different compound concentrations. II. Jurkat Reporter Gene Cellular Assay

[2] = Jurkat reporter gene cellular assay; type: cell-based; settings: Homo sapiens; Jurkat/NF-κB-luc/PD1 + Raji-PD-L1 coculture, OKT3 1 μg/mL, 6 hrs, activation fold; read-out: Cell Activity EC50
Method: The effect of compounds of the examples of the present invention and positive compounds on the interaction between PD-1 and PD-L1 expressed on cell surfaces, and the related influence on T cell functions, were determined by a Jurkat reporter gene cellular assay.
Briefly, the reporter gene plasmid of NF-κB-luc and the plasmid of human PD-1 were transfected into Jurkat cells to establish a stably transfected cell line capable of stably expressing both PD-1 and NF-κB-Luc reporter genes; the expression level of PD-1 on the cell surface was confirmed by flow cytometry; and the expression of the reporter gene was confirmed via the response of the reporter gene stimulated by OKT-3 and Raiji cells.
In addition, the plasmid of human PD-L1 was transfected into Raji cells to obtain a cell line capable of stably expressing PD-L1. Jurkat/NF-κB-luc/PD1 cells and Raji-PD-L1 cells were then cocultured and stimulated with OKT-3. On this basis, the compounds were added, and the enhancement of the signal pathway of T cell activation by the inhibitory effect of the compounds on the interaction between PD-1 and PD-L1 was evaluated by readings of reporter gene responses. The specific experimental process was as follows: • 1) 30 μL of compound or antibody solution was added to each well of a white 96-well plate (coming, 3610) at different diluted concentrations, and 10 μL of OKT3 (Biolegend, 317326) was then added (the final concentration of OKT3: 1 μg/mL); • 2) 20 μL of Raji-PD-L1 cell suspension was added to each well with 5*10^4 cells for each well, and was incubated in an incubator for 20 min: • 3) 20 μL of Jurkat/NF-κb-luc/PD-1 cell suspension was added to each well with 5*10^4 cells for each well, and well mixed, and 6 hrs later, Bright-glo (Promega, E2620) was applied and plates were read on Envision; • 4) The reading of each well treated with the compound was compared with the reading of each well treated with DMSO to obtain the activation fold of the compound; • 5) EC50 values of compounds and positive compounds of the examples of the present invention were determined by non-linear regression analysis of activation folds at different compound concentrations.

[3] = Pharmacokinetic assay in mice; type: in vivo; settings: male, mouse; ICR mice, PO 10 mg/kg, plasma
Method: III. Pharmacokinetic Assay in Mice
The purpose of this study was to study the pharmacokinetic behaviors of some compounds of the present invention, and administration routes were: per oral administration (PO) to ICR mice at a dose of 10 mg/kg.
The compounds used in this test came from the compounds of the specific examples of the present invention.
ICR mice, male, N=3, with the original source of Shanghai Sippr-BK Laboratory Animal Co. Ltd.
2.3 Preparation and Administration of Drug
The compounds were weighed, and dissolved in a solvent of 0.5% SDS+0.5% CMCNa. The mixture solutions were mixed well by shaking and ultrasonic treatment to obtain colorless clear solutions. The solutions were orally administered to nine mice after an overnight fast. The dosage of administration was 10 mg/kg.
• 1) With about 90 μL/time point, blood was drawn from the submaxillary vein, and heparin sodium was added for anticoagulation. The blood samples were placed onto the ice, and were centrifuged (centrifugation conditions: 8000 r/min, 6 min, 2-8° C.) within 1 hr to obtain plasmas. • 2) The time points for blood sampling were at 0 hr, 0.25 hr, 0.5 hr, 1 hr, 2 hrs, 4 hrs, 6 hrs, 8 hrs and 24 hrs after administration. The samples were stored in a refrigerator at −20° C. • 3) 40 μL of plasma sample was added to 160 μL of cold acetonitrile containing an internal standard, and the mixture solution was vortexed for 3 min and centrifuged at 11,000 r/min for 5 min. • 4) 100 μL of supernate was taken and added to 100 μL of water, and 5 μL of the sample was taken and analyzed by LC/MS/MS.
The compounds from some representative examples of the present invention were administered and tested according to the above method, and their prototype compounds were detected.

Sequence of interaction between PD-1 and PD-L1 (Q9NZQ7 19-238): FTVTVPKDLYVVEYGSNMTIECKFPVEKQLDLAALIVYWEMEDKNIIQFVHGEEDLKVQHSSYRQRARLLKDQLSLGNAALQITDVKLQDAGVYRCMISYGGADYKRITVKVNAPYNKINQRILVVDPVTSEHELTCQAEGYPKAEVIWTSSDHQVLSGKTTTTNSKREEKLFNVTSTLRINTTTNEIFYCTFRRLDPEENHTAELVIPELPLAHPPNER

| Compound | IC50 [1] [nM] | EC50 [2] [nM] | AUC(0-t) [3] [ng·h/mL] | Cmax [3] [ng/mL] | MRT [3] [h] | Tmax [3] [min] | half-life [3] [min] |
| --- | --- | --- | --- | --- | --- | --- | --- |
| CC(C)N1CCc2cc(C(=O)Nc3cccc(-c4cccc(NC(=O)c5nc6c(n5C)CCN(CCC57CCC(C(=O)O)(CC5)C7)C6)c4Cl)c3Cl)ncc2C1 [Example 1, 4-(2-(2-((2,2′-dichloro-3′-(7-isopropyl-5,6,7,8-tetrahydro-2,7-naphthyridine-3-carboxamido)-[1,1′-biphenyl]-3-yl)carbamoyl)-1-methyl-1,4,6,7-tetrahydro-5H-imidazo[4,5-c]pyridin-5-yl)ethyl)bicyclo[2.2.1]heptane-1-carboxylic acid] | 0.73 | 53.8 | 18400 | 2850 | 4.9 | 30 | 216 |
| CN1CCc2cc(C(=O)Nc3cccc(-c4cccc(NC(=O)c5nc6c(n5C)CCN(CCC57CCC(C(=O)O)(CC5)C7)C6)c4Cl)c3Cl)ncc2C1 [Example 2, 4-(2-(2-((2,2′-dichloro-3′-(7-methyl-5,6,7,8-tetrahydro-2,7-naphthyridine-3-carboxamido)-[1,1′-biphenyl]-3-yl)carbamoyl)-1-methyl-1,4,6,7-tetrahydro-5H-imidazo[4,5-c]pyridin-5-yl)ethyl)bicyclo[2.2.1] heptane-1-carboxylic acid] | 0.178 | 50 | 1820 | 2320 | 1.8 | 4.98 | 240 |
| CC(C)N1CCc2cc(/C(F)=C/c3cccc(-c4cccc(NC(=O)c5nc6c(n5C)CCN(CCC57CCC(C(=O)O)(CC5)C7)C6)c4Cl)c3Cl)ncc2C1 [Example 25, (Z)-4-(2-(2-((2,2′-dichloro-3′-(2-fluoro-2-(7-isopropyl-5,6,7,8-tetrahydro-2,7-naphthyridin-3-yl)vinyl)-[1,1′-biphenyl]-3-yl)carbamoyl)-1-methyl-1,4,6,7-tetrahydro-5H-imidazo[4,5-c]pyridin-5-yl)ethyl) bicyclo[2.2.1]heptane-1-carboxylic acid] | 0.358 | 86.3 |  |  |  |  |  |
| CC(C)N1CCc2cc(C(=O)Nc3cccc(-c4cccc(NC(=O)c5nc6c(n5C)CCN(CCC57CCC(C(=O)O)(CC5)CC7)C6)c4Cl)c3Cl)ncc2C1 [Example 58, 4-(2-(2-((2,2′-dichloro-3′-(7-isopropyl-5,6,7,8-tetrahydro-2,7-naphthyridine-3-carboxamido)-[1,1′-biphenyl]-3-yl)carbamoyl)-1-methyl-1,4,6,7-tetrahydro-5H-imidazo[4,5-c]pyridin-5-yl)ethyl)bicyclo [2.2.2]octane-1-carboxylic acid] | 0.73 | 53.5 | 13900 | 1630 | 5.7 | 60 | 228 |
| CC(C)N1CCc2cc(C(=O)Nc3cccc(-c4cccc(NC(=O)c5nc6c(n5C)CCN(CCC57C8C9C5C5C7C8C95C(=O)O)C6)c4Cl)c3Cl)ncc2C1 (stereo not shown) [Example 59, 4-(2-(2-((2,2′-dichloro-3′-(7-isopropyl-5,6,7,8-tetrahydro-2,7-naphthyridine-3-carboxamido)-[1,1′-biphenyl]-3-yl)carbamoyl)-1-methyl-1,4,6,7-tetrahydro-5H-imidazo[4,5-c]pyridin-5-yl)ethyl)cubane-1-carboxylic acid] | 0.904 | 33.8 | 2300 | 616 | 2.4 | 30 | 72 |
| CC(C)N1CCc2cc(C(=O)Nc3cccc(-c4cccc(NC(=O)c5nc6c(n5C)CCN(CCC57CC(C(=O)O)(C5)C7)C6)c4Cl)c3Cl)ncc2C1 [Example 60, 3-(2-(2-((2,2′-dichloro-3′-(7-isopropyl-5,6,7,8-tetrahydro-2,7-naphthyridine-3-carboxamido)-[1,1′-biphenyl]-3-yl)carbamoyl)-1-methyl-1,4,6,7-tetrahydro-5H-imidazo[4,5-c]pyridin-5-yl)ethyl)bicyclo [1.1.1]pentane-1-carboxylic acid] | 0.253 | 29.4 | 4250 | 2420 | 2 | 30 | 96 |
